According to patent US5418232A, “Diazabicycloalkene derivatives” (Daiichi Pharmaceutical Co., Ltd., priority 1992, dated 1995):

Experiments:
male mice = assay: Acute toxicity; type: in vivo; conditions: oral 2 g/kg
Acute toxicity = type: in vivo; conditions: mouse, in vivo, po
[1] = test system: spontaneously hypertensive rats; assay: Effect on renal blood flow (Doppler probe); type: in vivo, rat; conditions: for Increase in Renal Blood Flow 1 Hr after Administration: oral, dose which reduced blood pressure by about 50 mmHg; for activity in increasing the renal blood flow vs reference drug (in words): vs EMD57283
Experimental: Twenty-week-old male spontaneously hypertensive rats (body weight: 350-430 g) were anesthetized with pentobarbital (30 mg/kg, i.p.). An incision was made in the abdomen on the left side, and a Doppler probe for blood flow measurement was fitted to the left renal artery, and the code (wire lead) of the probe was passed under the back skin and taken out from the back of the neck. After 1 week from the operation, the code of the probe was connected to a Doppler blood flow meter to start measurement of the renal blood flow. After the renal blood flow reached to a steady state, a test compound was orally administered, and changes in renal blood flow were observed up to 9 hours. The test compound was used at a dose which reduced blood pressure by about 50 mmHg.

[2] = test system: spontaneously hypertensive rats; assay: Antihypertensive activity in spontaneously hypertensive rats (oral, tail-cuff); type: in vivo, rat
Experimental: Male spontaneously hypertensive rats (16 to 20-week-old; body weight: 300-400 g) fed ab lib. were forceably given oral administration of a test compound suspended in 0.5% (w/v) carboxymethyl cellulose aqueous solution. After 1, 2, 4, 6, 8, 24, 30 or 48 hours from the administration, the systolic blood pressure was measured by a tail-cuff method described in Arzneimittel-Forschung, Vol. 18, pp. 1285-1287 (1968)).
The antihypertensive activity of the test compound was obtained as an effective dose for reducing blood pressure by 50 mmHg (ED50mmHg). Further, the time of onset of the maximum activity and the maximum increase in heart rate at a dose for reducing blood pressure by 50 to 60 mmHg were measured.
The statistical difference between a test compound and EMD57283 was analyzed by the Student's t-test.

[3] = test system: spontaneously hypertensive rats; assay: Blood pressure fall after i.v. compound with or without glibenclamide pretreatment; type: in vivo, rat
Experimental: 2) Twenty-two-week-old male spontaneously hypertensive rats (body weight, 350-420 g) were given an intravenous injection of 30 mg/kg of glibenclamide (Sigma Chemical Company) having an antagonistic activity against potassium channel openers or, as a control, a solvent.

[4] = dose reducing blood pressure by 50 to 60 mmHg

Compound: CN1N=C(O[C@@H]2c3cc(C#N)ccc3OC(C)(C)[C@H]2O)C2CC2C1=O (relative stereo) [Example 2, 3,4-trans-3,4-dihydro-2,2-dimethyl-3-hydroxy-4-(3-methyl-2-oxo-3,4-diazabicyclo[4.1.0]hept-4-en-5-yloxy)-2H-1-benzopyran-6-carbonitrile]
- safety (in words) (male mice): highly safe
- LD50 at 336 h (Acute toxicity): > 2000 mg/kg

Compound: CC1(C)Oc2ccc(C#N)cc2[C@@H](OC2=NN(Cc3ccccc3Cl)C(=O)C3CC23)[C@@H]1O (relative stereo) [Example 33, (3S,4R,1'R*,6'S*)-4-(3-(2-chlorobenzyl)-2-oxo-3,4-diazabicyclo[4.1.0]hept-4-en-5-yloxy)-3,4-dihydro-2,2-dimethyl-3-hydroxy-2H-1-benzopyran-6-carbonitrile]
- safety (in words) (male mice): highly safe
- LD50 at 336 h (Acute toxicity): > 2000 mg/kg
- Increase in Renal Blood Flow 1 Hr after Administration [1]: 14.5 ± 4.0%
- activity in increasing the renal blood flow vs reference drug (in words) [1]: more potent activity in increasing the renal blood flow than the reference drug
- antihypertensive activity (in words) [2]: potent antihypertensive activity
- duration of activity (in words) [2]: long duration of activity
- ED (50 mmHg) ([2]; Rattus norvegicus, systolic blood pressure, read-out: ED50mmHg (effective dose for reducing blood pressure by 50 mmHg)): 0.031 mg/kg
- Max. increase of Heat Rate [2, 4]: 19.4 ± 3.1%
- Time for Onset of Max. Activity [2, 4]: 6.6 ± 0.5 h

Compound: CC1(C)Oc2ccc(C#N)cc2[C@@H](OC2=NN(Cc3ccccc3)C(=O)C3CC23)[C@@H]1O (relative stereo) [Example 1, 3,4-trans-4-(3-Benzyl-2-oxo-3,4-diazabicyclo[4.1.0]hept-4-en-5-yloxy)-3,4-dihydro-2,2-dimethyl-3-hydroxy-2H-1-benzopyran-6-carbonitrile]
- Average Blood Pressure Fall ([3]; 1 Hr., 0.1 mg/kg i.v. + Glibenclamide 30 mg/kg i.v.): 15.9 ± 3.7 mmHg
- Average Blood Pressure Fall ([3]; 1 Hr., 0.1 mg/kg i.v. + solvent): 41.4 ± 6.1 mmHg
- Average Blood Pressure Fall ([3]; 2 Hrs., 0.1 mg/kg i.v. + Glibenclamide 30 mg/kg i.v.): 22.0 ± 5.7 mmHg
- Average Blood Pressure Fall ([3]; 2 Hrs., 0.1 mg/kg i.v. + solvent): 50.4 ± 4.4 mmHg
- Average Blood Pressure Fall ([3]; 3 Hrs., 0.1 mg/kg i.v. + Glibenclamide 30 mg/kg i.v.): 28.0 ± 5.3 mmHg
- Average Blood Pressure Fall ([3]; 3 Hrs., 0.1 mg/kg i.v. + solvent): 55.9 ± 4.3 mmHg
- Average Blood Pressure Fall ([3]; 4 Hrs., 0.1 mg/kg i.v. + Glibenclamide 30 mg/kg i.v.): 26.9 ± 5.7 mmHg
- Average Blood Pressure Fall ([3]; 4 Hrs., 0.1 mg/kg i.v. + solvent): 55.1 ± 4.7 mmHg
- potassium channel opening activity (in words) ([3]; conclusion from Table 6, glibenclamide antagonism): possesses potassium channel opening activity
- safety (in words) (male mice): highly safe
- LD50 at 336 h (Acute toxicity): > 2000 mg/kg
- Increase in Renal Blood Flow 1 Hr after Administration [1]: 34.0 ± 6.1%
- activity in increasing the renal blood flow vs reference drug (in words) [1]: more potent activity in increasing the renal blood flow than the reference drug
